Data published in PubChem BioAssay (NCI).
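48-hour exposure; five concentrations; linearly interpolated endpoints. GI50: concentration for 50% inhibition of growth. TGI: concentration producing complete growth inhibition.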

Tests used:
Assay in all cases: DTP human tumour cell line panel, 48 h
[1] = system: NCI-H23 lung
[2] = system: NCI-H460 lung
[3] = system: NCI-H522 lung
[4] = system: NCI/ADR-RES ovarian
[5] = system: OVCAR-3 ovarian
[6] = system: OVCAR-4 ovarian
[7] = system: OVCAR-5 ovarian
[8] = system: OVCAR-8 ovarian
[9] = system: PC-3 prostate
[10] = system: RPMI-8226 leukemia
[11] = system: RXF 393 renal
[12] = system: SF-268 CNS
[13] = system: SF-295 CNS
[14] = system: SF-539 CNS
[15] = system: SK-MEL-2 melanoma
[16] = system: SK-MEL-28 melanoma
[17] = system: SK-MEL-5 melanoma
[18] = system: SK-OV-3 ovarian
[19] = system: SN12C renal
[20] = system: SNB-19 CNS
[21] = system: SNB-75 CNS
[22] = system: SR leukemia
[23] = system: SW-620 colon
[24] = system: T-47D breast
[25] = system: TK-10 renal
[26] = system: U251 CNS
[27] = system: UACC-257 melanoma
[28] = system: UACC-62 melanoma
[29] = system: UO-31 renal

COc1cccc(CC(C)=C(c2ccc(OCCN3CCCCC3)cc2)c2ccc(OCCN3CCCCC3)cc2)c1
GI50 [1]: 2.13 µM | TGI [1]: 4.47 µM | GI50 [2]: 1.96 µM | TGI [2]: 3.93 µM | GI50 [3]: 2.16 µM | TGI [3]: 4.53 µM | GI50 [4]: 2.1 µM | TGI [4]: 4.34 µM | GI50 [5]: 1.95 µM | TGI [5]: 4.04 µM | GI50 [6]: 1.95 µM | TGI [6]: 4.03 µM | GI50 [7]: 2.02 µM | TGI [7]: 3.99 µM | GI50 [8]: 2.3 µM | TGI [8]: 4.81 µM | GI50 [9]: 1.83 µM | TGI [9]: 3.75 µM | GI50 [10]: 1.62 µM | TGI [10]: 4.41 µM | GI50 [11]: 0.916 µM | TGI [11]: 2.88 µM | GI50 [12]: 2.08 µM | TGI [12]: 4.32 µM | GI50 [13]: 2.42 µM | TGI [13]: 4.82 µM | GI50 [14]: 2.11 µM | TGI [14]: 4.11 µM | GI50 [15]: 2.73 µM | TGI [15]: 5.71 µM | GI50 [16]: 2.12 µM | TGI [16]: 4.11 µM | GI50 [17]: 2.23 µM | TGI [17]: 4.17 µM | GI50 [18]: 2.2 µM | TGI [18]: 4.23 µM | GI50 [19]: 2.02 µM | TGI [19]: 4.04 µM | GI50 [20]: 2.11 µM | TGI [20]: 4.13 µM | GI50 [21]: 1.77 µM | TGI [21]: 3.83 µM | GI50 [22]: 0.392 µM | TGI [22]: 1.2 µM | GI50 [23]: 1.74 µM | TGI [23]: 3.78 µM | GI50 [24]: 1.58 µM | TGI [24]: 4.06 µM | GI50 [25]: 2.36 µM | TGI [25]: 4.54 µM | GI50 [26]: 1.81 µM | TGI [26]: 3.7 µM | GI50 [27]: 2.14 µM | TGI [27]: 4.33 µM | GI50 [28]: 2.1 µM | TGI [28]: 4.17 µM | GI50 [29]: 1.84 µM | TGI [29]: 3.66 µM
